{
  "source": "PubChem BioAssay AID1745844",
  "about": "(Carcinogenic Potency Database (CPDB), 2022)",
  "system": "rodent lifetime carcinogenesis bioassay, tumor incidence TD50",
  "assay": "carcinogenic potency in animals, long-term in vivo studies, CPDB compilation (AID 1745844)",
  "note": "Values joined by “and” are separate entries in the source; they are usually repeats but may differ in a detail not shown here. Identical values can stand only once. Active and inactive are the calls of the source. No rule for the calls is given here.",
  "data": [
    {"smiles": "[Cl][Sn][Cl]", "values": [
      {"measurement": "TD50", "setting": "mouse, strain B6C3F1, females, in feed, site: all sites, lesion: lymphoma, histiocytic type, dosed 105 weeks, study length 105 weeks", "result": 2550, "unit": "mg/kg/day"},
      {"measurement": "TD50", "setting": "mouse, strain B6C3F1, females, in feed, site: any site (literature study), lesion: several types, types named in the paper, dosed 105 weeks, study length 105 weeks", "result": 386, "unit": "mg/kg/day"},
      {"measurement": "TD50", "setting": "mouse, strain B6C3F1, females, in feed, site: liver, lesion: hepatocellular adenoma + hepatocellular carcinoma + neoplastic nodule, dosed 105 weeks, study length 105 weeks", "result": 1020, "unit": "mg/kg/day"},
      {"measurement": "TD50", "setting": "mouse, strain B6C3F1, females, in feed, site: liver, lesion: hepatocellular carcinoma, dosed 105 weeks, study length 105 weeks", "result": 1420, "unit": "mg/kg/day"},
      {"measurement": "TD50", "setting": "mouse, strain B6C3F1, females, in feed, site: pituitary gland, lesion: adenoma, dosed 105 weeks, study length 105 weeks", "result": "1390 mg/kg/day (inactive)"},
      {"measurement": "carcinogen call", "setting": "mouse, strain B6C3F1, males, in feed, site: any site (literature study), lesion: several types, types named in the paper, dosed 105 weeks, study length 105 weeks", "result": "negative (inactive)"},
      {"measurement": "carcinogen call", "setting": "mouse, strain Charles River CD1, both sexes, in drinking water, site: any site (literature study), lesion: benign tumor, dosed 104 weeks, study length 104 weeks", "result": "negative (inactive)"},
      {"measurement": "carcinogen call", "setting": "mouse, strain Charles River CD1, both sexes, in drinking water, site: any site (literature study), lesion: malignant tumor, dosed 104 weeks, study length 104 weeks", "result": "negative (inactive)"},
      {"measurement": "carcinogen call", "setting": "mouse, strain Charles River CD1, both sexes, in drinking water, site: any site (literature study), lesion: several types, types named in the paper, dosed 104 weeks, study length 104 weeks", "result": "negative (inactive)"},
      {"measurement": "carcinogen call", "setting": "mouse, strain Charles River CD1, both sexes, in drinking water, site: lung, lesion: adenoma, dosed 104 weeks, study length 104 weeks", "result": "negative (inactive)"},
      {"measurement": "carcinogen call", "setting": "mouse, strain Charles River CD1, both sexes, in drinking water, site: lung, lesion: several types, types named in the paper, dosed 104 weeks, study length 104 weeks", "result": "negative (inactive)"},
      {"measurement": "TD50", "setting": "rat, strain Fischer 344, females, in feed, site: any site (literature study), lesion: several types, types named in the paper, dosed 105 weeks, study length 104 weeks", "result": "12000 mg/kg/day (inactive)"},
      {"measurement": "TD50", "setting": "rat, strain Fischer 344, females, in feed, site: liver, lesion: hepatocellular adenoma + hepatocellular carcinoma + neoplastic nodule, dosed 105 weeks, study length 104 weeks", "result": 676000, "unit": "mg/kg/day"},
      {"measurement": "TD50", "setting": "rat, strain Fischer 344, males, in feed, site: any site (literature study), lesion: several types, types named in the paper, dosed 104 weeks, study length 104 weeks", "result": 180, "unit": "mg/kg/day"},
      {"measurement": "TD50", "setting": "rat, strain Fischer 344, males, in feed, site: lung, lesion: alveolar/bronchiolar adenoma, dosed 104 weeks, study length 104 weeks", "result": 951, "unit": "mg/kg/day"},
      {"measurement": "TD50", "setting": "rat, strain Fischer 344, males, in feed, site: thyroid gland, lesion: c-cell adenoma + c-cell carcinoma, dosed 104 weeks, study length 104 weeks", "result": "87.4 mg/kg/day (inactive)"},
      {"measurement": "TD50", "setting": "rat, strain Fischer 344, males, in feed, site: thyroid gland, lesion: c-cell carcinoma, dosed 104 weeks, study length 104 weeks", "result": 405, "unit": "mg/kg/day"},
      {"measurement": "carcinogen call", "setting": "rat, strain Long-Evans BLU:(LE), both sexes, in drinking water, site: any site (literature study), lesion: malignant tumor, dosed 156 weeks, study length 156 weeks", "result": "negative (inactive)"},
      {"measurement": "carcinogen call", "setting": "rat, strain Long-Evans BLU:(LE), both sexes, in drinking water, site: any site (literature study), lesion: one or several types, types not named, dosed 156 weeks, study length 156 weeks", "result": "negative (inactive)"},
      {"measurement": "carcinogen call", "setting": "rat, strain Long-Evans BLU:(LE), both sexes, in drinking water, site: liver, lesion: one or several types, types not named, dosed 156 weeks, study length 156 weeks", "result": "negative (inactive)"}
    ]},
    {"smiles": "CN(N=O)C(=O)c1ccccc1C(=O)N(C)N=O", "values": [
      {"measurement": "carcinogen call", "setting": "rat, strain Wistar, males, by gavage, site: any site (literature study), lesion: several types, types named in the paper, dosed 67 weeks, study length 67 weeks", "result": "negative (inactive)"}
    ]},
    {"smiles": "CCCCCCCC/C=C\\CCCCCCCC(=O)O", "values": [
      {"measurement": "carcinogen call", "setting": "rat, strain F344/DuCrj, females, in drinking water, site: any site (literature study), lesion: several types, types named in the paper, dosed 108 weeks, study length 108 weeks", "result": "negative (inactive)"},
      {"measurement": "carcinogen call", "setting": "rat, strain F344/DuCrj, females, in drinking water, site: liver, lesion: hyperplastic nodule, dosed 108 weeks, study length 108 weeks", "result": "negative (inactive)"},
      {"measurement": "carcinogen call", "setting": "rat, strain F344/DuCrj, males, in drinking water, site: any site (literature study), lesion: several types, types named in the paper, dosed 108 weeks, study length 108 weeks", "result": "negative (inactive)"},
      {"measurement": "TD50", "setting": "rat, strain F344/DuCrj, males, in drinking water, site: liver, lesion: hyperplastic nodule, dosed 108 weeks, study length 108 weeks", "result": "29100 mg/kg/day (inactive)"},
      {"measurement": "TD50", "setting": "rat, strain F344/DuCrj, males, in drinking water, site: liver, lesion: several types, types named in the paper, dosed 108 weeks, study length 108 weeks", "result": "39300 mg/kg/day (inactive)"},
      {"measurement": "TD50", "setting": "rat, strain F344/DuCrj, males, in drinking water, site: pancreas, lesion: insuloma, dosed 108 weeks, study length 108 weeks", "result": "12600 mg/kg/day (inactive)"},
      {"measurement": "TD50", "setting": "rat, strain F344/DuCrj, males, in drinking water, site: pancreas, lesion: several types, types named in the paper, dosed 108 weeks, study length 108 weeks", "result": "10100 mg/kg/day (inactive)"}
    ]},
    {"smiles": "C=C1C(CCl)(CCl)C2(Cl)C(Cl)C(Cl)C1(Cl)C2(Cl)Cl", "note": "(stereo unspecified)", "values": [
      {"measurement": "TD50", "setting": "mouse, strain B6C3F1, females, in feed, site: liver, lesion: hepatocellular adenoma, dosed 78 weeks, study length 104 weeks", "result": 91.6, "unit": "mg/kg/day"},
      {"measurement": "TD50", "setting": "mouse, strain B6C3F1, females, in feed, site: liver, lesion: hepatocellular adenoma, dosed 80 weeks, study length 90 weeks", "result": "11.4 mg/kg/day and 11.6 mg/kg/day"},
      {"measurement": "TD50", "setting": "mouse, strain B6C3F1, females, in feed, site: liver, lesion: hepatocellular carcinoma, dosed 78 weeks, study length 104 weeks", "result": 66.2, "unit": "mg/kg/day"},
      {"measurement": "TD50", "setting": "mouse, strain B6C3F1, females, in feed, site: liver, lesion: hepatocellular carcinoma, dosed 80 weeks, study length 90 weeks", "result": 273, "unit": "mg/kg/day"},
      {"measurement": "TD50", "setting": "mouse, strain B6C3F1, females, in feed, site: liver, lesion: several types, pooled by NCI/NTP, dosed 80 weeks, study length 90 weeks", "result": "10.6 mg/kg/day and 10.8 mg/kg/day"},
      {"measurement": "TD50", "setting": "mouse, strain B6C3F1, females, in feed, site: liver, lesion: several types, types named in the paper, dosed 78 weeks, study length 104 weeks", "result": 37, "unit": "mg/kg/day"},
      {"measurement": "TD50", "setting": "mouse, strain B6C3F1, males, in feed, site: liver, lesion: hepatocellular adenoma, dosed 78 weeks, study length 104 weeks", "result": 21.2, "unit": "mg/kg/day"},
      {"measurement": "TD50", "setting": "mouse, strain B6C3F1, males, in feed, site: liver, lesion: hepatocellular adenoma, dosed 80 weeks, study length 90 weeks", "result": "6.12 mg/kg/day and 5.76 mg/kg/day"},
      {"measurement": "TD50", "setting": "mouse, strain B6C3F1, males, in feed, site: liver, lesion: hepatocellular carcinoma, dosed 78 weeks, study length 104 weeks", "result": 27.5, "unit": "mg/kg/day"},
      {"measurement": "TD50", "setting": "mouse, strain B6C3F1, males, in feed, site: liver, lesion: hepatocellular carcinoma, dosed 80 weeks, study length 90 weeks", "result": "248 mg/kg/day and 168 mg/kg/day"},
      {"measurement": "TD50", "setting": "mouse, strain B6C3F1, males, in feed, site: liver, lesion: several types, pooled by NCI/NTP, dosed 80 weeks, study length 90 weeks", "result": "4.2 mg/kg/day and 4.08 mg/kg/day"},
      {"measurement": "TD50", "setting": "mouse, strain B6C3F1, males, in feed, site: liver, lesion: several types, types named in the paper, dosed 78 weeks, study length 104 weeks", "result": 13.6, "unit": "mg/kg/day"},
      {"measurement": "TD50", "setting": "rat, strain Osborne-Mendel, females, in feed, site: any site (literature study), lesion: several types, types named in the paper, dosed 80 weeks, study length 108 weeks", "result": 596, "unit": "mg/kg/day"},
      {"measurement": "TD50", "setting": "rat, strain Osborne-Mendel, females, in feed, site: thyroid gland, lesion: follicular-cell adenoma, dosed 80 weeks, study length 108 weeks", "result": 209, "unit": "mg/kg/day"},
      {"measurement": "TD50", "setting": "rat, strain Osborne-Mendel, males, in feed, site: any site (literature study), lesion: several types, types named in the paper, dosed 80 weeks, study length 108 weeks", "result": 1020, "unit": "mg/kg/day"},
      {"measurement": "TD50", "setting": "rat, strain Osborne-Mendel, males, in feed, site: liver, lesion: hepatocellular adenoma + hepatocellular carcinoma + neoplastic nodule, dosed 80 weeks, study length 108 weeks", "result": 949, "unit": "mg/kg/day"},
      {"measurement": "TD50", "setting": "rat, strain Osborne-Mendel, males, in feed, site: liver, lesion: neoplastic nodule, dosed 80 weeks, study length 108 weeks", "result": 92.1, "unit": "mg/kg/day"},
      {"measurement": "TD50", "setting": "rat, strain Osborne-Mendel, males, in feed, site: thyroid gland, lesion: follicular-cell adenoma + follicular-cell carcinoma, dosed 80 weeks, study length 108 weeks", "result": 58.9, "unit": "mg/kg/day"}
    ]},
    {"smiles": "Nc1ccc(N=Nc2ccc(-c3ccc(N=Nc4c(S(=O)(=O)O)cc5cc(S(=O)(=O)O)c(N=Nc6ccccc6)c(O)c5c4N)cc3)cc2)c(N)c1", "values": [
      {"measurement": "TD50", "setting": "mouse, strain ICR, both sexes, in drinking water, site: any site (literature study), lesion: several types, types named in the paper, dosed 57 weeks, study length 57 weeks", "result": 32, "unit": "mg/kg/day"},
      {"measurement": "TD50", "setting": "mouse, strain ICR, both sexes, in drinking water, site: liver, lesion: hepatoma, dosed 57 weeks, study length 57 weeks", "result": 71.6, "unit": "mg/kg/day"},
      {"measurement": "TD50", "setting": "mouse, strain ICR, both sexes, in drinking water, site: mammary gland, lesion: several types, types named in the paper, dosed 57 weeks, study length 57 weeks", "result": 262, "unit": "mg/kg/day"},
      {"measurement": "TD50", "setting": "rat, strain Fischer 344, females, in feed, site: any site (literature study), lesion: several types, types named in the paper, dosed 13 weeks, study length 13 weeks", "result": 2.61, "unit": "mg/kg/day"},
      {"measurement": "TD50", "setting": "rat, strain Fischer 344, females, in feed, site: liver, lesion: hepatocellular adenoma + hepatocellular carcinoma + neoplastic nodule, dosed 13 weeks, study length 13 weeks", "result": 2.61, "unit": "mg/kg/day"},
      {"measurement": "TD50", "setting": "rat, strain Fischer 344, females, in feed, site: liver, lesion: neoplastic nodule, dosed 13 weeks, study length 13 weeks", "result": 2.61, "unit": "mg/kg/day"},
      {"measurement": "TD50", "setting": "rat, strain Fischer 344, males, in feed, site: any site (literature study), lesion: several types, types named in the paper, dosed 13 weeks, study length 13 weeks", "result": 0.945, "unit": "mg/kg/day"},
      {"measurement": "TD50", "setting": "rat, strain Fischer 344, males, in feed, site: liver, lesion: hepatocellular adenoma + hepatocellular carcinoma + neoplastic nodule, dosed 13 weeks, study length 13 weeks", "result": 0.945, "unit": "mg/kg/day"},
      {"measurement": "TD50", "setting": "rat, strain Fischer 344, males, in feed, site: liver, lesion: hepatocellular carcinoma + neoplastic nodule, dosed 13 weeks, study length 13 weeks", "result": 0.945, "unit": "mg/kg/day"},
      {"measurement": "TD50", "setting": "rat, strain Fischer 344, males, in feed, site: liver, lesion: hepatocellular carcinoma, dosed 13 weeks, study length 13 weeks", "result": 2.22, "unit": "mg/kg/day"}
    ]}
  ]
}
